Consider 19 molecules from patent US12595248B2, “PRMT5 inhibitors” (Merck Sharp & Dohme LLC, priority 2019, dated 2026).

Like-named read-outs stand apart in the source and are kept apart here.

One experiment has as its target T1, PRMT5 (Homo sapiens, UniProt O14744).
T1 construct: seeded with 4000 MCF-7 cells in 30 μl media; endogenous in cells; host or cells: MCF-7 cells
The experiment can be described thus: PRMT5 Cell Target Engagement (TE) Assay. The class given is cell-based. Particulars: MCF-7 cells, treated for 3 days, symmetric dimethylation of arginine (SDMA) by high content imaging. From the text: PRMT5 Cell Target Engagement (TE) Assay
The PRMT5 TE assay is a biomarker assay for identifying compounds that inhibit symmetric dimethylation of arginine (SDMA) of PRMT5 substrates. The following substrates have been reported for PRMT5: histone H2A and H4 R3, Histone H3 R2, Histone H3 R8, spliceosome Sm proteins, ribosomal protein RPS10, p53, FEN1, nucleoplasmin, nucleolin, EGFR and EBNA. The assay focuses on detecting symmetrically dimethylated nuclear proteins using high content imaging technology. Detection of the expression of symmetrically dimethylated nuclear proteins is through a mixture of primary rabbit monoclonal antibodies to SDMA (CST 13222), which in turn recognized by an Alexafluor 488 dye-conjugated anti-rabbit IgG secondary antibody. The IN Cell Analyzer 2200 or Opera-Phenix measures nuclear Alexafluor 488 fluorescent dye intensity that is directly related to the level of expression of symmetrically dimethylated nuclear proteins at the single cell level. Nuclear AF488 dye intensities are compared to the mean value for DMSO treated cells (MIN) to report percent of inhibition for each compound-treated well.
In this assay, the cell potency (EC50) of each compound was determined from a ten point (1:3 serial dilution; top compound concentration of 10000 nM) titration curve using the following outlined procedure. Each well of a BD falcon collagen coated black/clear bottom 384-well plate was seeded with 4000 MCF-7 cells in 30 μl media and allowed to attach for 5 h. Media is ATCC-formulated Eagle's Minimum Essential Medium, Catalog No. 30-2003. To make the complete growth medium, the following components were added to the base medium: 0.01 mg/mL human recombinant insulin; fetal bovine serum to a final concentration of 10%. Additional 30 μl of media containing 2× compounds were added to each well. Cells were treated for 3 days in 37° C. CO2 incubator. On day 3, cells were fixed with Cytofix, permeabilized with 0.4% Triton-X-100/Cytofix, and washed with D-PBS without Ca/Mg. Cells were blocked with Licor Odessey blocking reagent for 1 h at room temperature, followed by incubation with anti-SDMA (1:1000) antibody at 4° C. overnight. 1° antibody was removed, followed by three washings with DPBS without Ca/Mg and 0.05% Tween20. Hoechst (5 μg/mL), Cell Mask deep stain (1:2000) and Alexa488-conjugated goat anti-rabbit IgG (2 μg/mL) was added for 1 h at room temperature. A final washing step (three washes) was performed before sealing plate for imaging on In Cell Analyzer 2200 or Opera-Phenix. Images from analyzer were uploaded to Columbus (at WP or BOS) for image analysis. IC50 values were determined by 4 parameters robust fit of percent fluorescence units vs. (Log10) compound concentrations.

Experiment [1] concerns the target T2, PRMT5-MEP50 enzyme complex (Homo sapiens, UniProt O14744).
T2 construct: Full-length (FL)-PRMT5-MEP50 enzyme complex (recombinant proteins from baculovirus-transfected Sf21 cells: FL-PRMT5; MW=73837 kDa and FL-MEP50; MW=38614); made in house; host or cells: baculovirus-transfected Sf21 cells
The experiment can be described thus: PRMT5-MEP50 Enzyme Methylation Assay (Version B). It is filed as biochemical. How it is done:
PRMT5-MEP50 Enzyme Methylation Assay (Version B)
PRMT5-MEP50 biochemical assay is a direct measurement of the methylation activity of the enzyme complex on a short peptide substrate derived from the N-terminus of H4 histone. Methylation experiment was performed with recombinant PRMT5-MEP50 protein complex. The assessment of inhibitory effect (EC50) of small molecules was measured by the effectiveness of the compounds to inhibit this reaction.
In this assay, the potency (EC50) of each compound was determined from a twenty-point (1:2 serial dilution; top compound concentration of 100000 nM) titration curve using the following outlined procedure. To each well of a white ProxiPlus 384 well-plate, 100 nL of compound (1% DMSO in final assay volume of 10 μL) was dispensed, followed by the addition of 8 μL of 1× assay buffer (50 mM Bicine pH 8.0, 1 mM DTT, 0.004% Tween20, 0.01% BSA) containing 0.625 nM of Full-length (FL)-PRMT5-MEP50 enzyme complex (recombinant proteins from baculovirus-transfected Sf21 cells: FL-PRMT5; MW=[…] and FL-MEP50; MW=38614). Plates were sealed and placed in a 37° C. humidified chamber for 30 minutes pre-incubation with compounds. Subsequently, each reaction was initiated by the addition of 2 μL 1× assay buffer containing 375 nM biotinylated H4R3 (MeI) peptide, and 75 μM S-(5′-Adenosyl)-L-Methionine Chloride (SAM). The final reaction in each well of 10 μL consists of 0.5 nM PRMT5-MEP50, 75 nM biotinylated-peptide, and 15 μM SAM. Methylation reactions were allowed to proceed for 150 minutes in a sealed plate at 37° C. Reactions were immediately quenched by the addition of 1 μL of 10% formic acid. Plates were then frozen and shipped to SAMDI™ Tech Inc. to determine the percent conversion from […]. Dose-response curves were generated by plotting percent effect (% product conversion; Y-axis) vs. Log 10 compound concentrations (X-axis). EC50 values were determined by non-linear regression according to models for either sigmoidal (4 parameters) or biphasic (7 parameters) dose-response curves.

The mark [2] stands for this setting: first of two EC50s: 7 parameters biphasic model, read-out: Enzyme Methylation Assay Version B (EC50_1).
Setting [3] is: second of two EC50s: 7 parameters biphasic model, read-out: Enzyme Methylation Assay Version B (EC50_2).
The mark [4] stands for this setting: only one EC50 shown: 4 parameters single site sigmoidal model, 30 min pre-incubation, read-out: Enzyme Methylation Assay Version B (EC50).

T1 sequence (O14744 whole entry): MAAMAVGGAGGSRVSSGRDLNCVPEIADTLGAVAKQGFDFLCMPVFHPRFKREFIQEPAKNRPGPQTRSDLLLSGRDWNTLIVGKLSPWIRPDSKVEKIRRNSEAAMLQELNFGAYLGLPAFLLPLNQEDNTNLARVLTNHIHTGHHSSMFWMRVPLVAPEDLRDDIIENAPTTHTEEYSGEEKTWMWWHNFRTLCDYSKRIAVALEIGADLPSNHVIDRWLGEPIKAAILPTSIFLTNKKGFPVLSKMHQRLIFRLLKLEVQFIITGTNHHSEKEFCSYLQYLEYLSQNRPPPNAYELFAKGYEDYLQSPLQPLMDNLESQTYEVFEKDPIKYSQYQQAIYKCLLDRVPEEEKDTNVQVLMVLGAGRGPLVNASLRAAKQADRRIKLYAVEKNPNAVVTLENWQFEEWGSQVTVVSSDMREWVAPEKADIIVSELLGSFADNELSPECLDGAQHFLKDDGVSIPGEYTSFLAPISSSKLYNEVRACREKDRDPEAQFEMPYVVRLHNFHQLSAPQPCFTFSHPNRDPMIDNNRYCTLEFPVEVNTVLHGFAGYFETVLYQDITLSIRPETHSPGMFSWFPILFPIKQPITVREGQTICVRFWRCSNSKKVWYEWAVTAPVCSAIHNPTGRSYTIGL
T1 sequence (Q9BQA1 whole entry partner): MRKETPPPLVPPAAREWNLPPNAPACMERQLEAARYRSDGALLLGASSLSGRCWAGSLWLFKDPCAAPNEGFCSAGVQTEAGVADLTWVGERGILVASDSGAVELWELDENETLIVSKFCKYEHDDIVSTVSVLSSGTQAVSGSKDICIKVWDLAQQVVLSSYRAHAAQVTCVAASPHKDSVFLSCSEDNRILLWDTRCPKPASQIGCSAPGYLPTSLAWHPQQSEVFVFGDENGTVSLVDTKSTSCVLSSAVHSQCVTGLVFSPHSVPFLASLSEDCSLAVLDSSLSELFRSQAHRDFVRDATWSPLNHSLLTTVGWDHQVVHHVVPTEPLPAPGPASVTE
T2 sequence (O14744 whole entry): as the sequence (O14744 whole entry) above
T2 sequence (Q9BQA1 whole entry partner): as the sequence (Q9BQA1 whole entry partner) above

Take `O=C(c1cn2cc(Br)ccc2n1)N1CC[C@@H](N2CCc3ccccc3C2)[C@H](O)C1` (single isomer, unassigned) [Example 2]: the EC50 amounted to 509 nM at PRMT5, 13 nM in experiment [1] (setting [2]) and 5890 nM in experiment [1] (setting [3]).

Take `CC(=O)N1CCC(Nc2cc(C(=O)N3CC[C@H](N4CCc5ccccc5C4)[C@@H](O)C3)ccn2)C(F)(F)C1` (single isomer, unassigned) [Example 6]: the EC50 was 24 nM on PRMT5, 4.8 nM in experiment [1] (setting [2]) and 2690 nM in experiment [1] (setting [3]).

For `CC(=O)N1CCC(Nc2cc(C(=O)N3CC[C@H](N4CCc5ccccc5C4)[C@@H](O)C3)ccn2)C(F)(F)C1` (single isomer, unassigned) [Example 7], the figures for the EC50 (at PRMT5; in experiment [1] (setting [2]); in experiment [1] (setting [3])) were 326 nM, 16 nM and 8570 nM, respectively.

Consider `CC(=O)N1CCC(Nc2cc(C(=O)N3CC[C@@H](N4CCc5ccccc5C4)[C@H](O)C3)ccn2)C(F)(F)C1` (single isomer, unassigned) [Example 8], for which the results for the EC50 (at PRMT5; in experiment [1] (setting [2]); in experiment [1] (setting [3])) were 9290 nM, approximately 571 nM and more than 100000 nM, respectively.

As to `CC(=O)N1CCC(Nc2cc(C(=O)N3CC[C@@H](N4CCc5ccccc5C4)[C@H](O)C3)ccn2)C(F)(F)C1` (single isomer, unassigned) [Example 9], the EC50 turned out to be 1680 nM on PRMT5, 61 nM in experiment [1] (setting [2]) and 8790 nM in experiment [1] (setting [3]).

On to `CCC1Oc2ccc(C(=O)N3CC[C@H](N4CCc5ccccc5C4)[C@@H](O)C3)cc2NC1=O` (single isomer, unassigned) [Example 10], for which the EC50 worked out at 119 nM on PRMT5, 6.4 nM in experiment [1] (setting [2]) and 4620 nM in experiment [1] (setting [3]).

Take `CCC1Oc2ccc(C(=O)N3CC[C@H](N4CCc5ccccc5C4)[C@@H](O)C3)cc2NC1=O` (single isomer, unassigned) [Example 11]: the EC50 stood at 4.9 nM at PRMT5, 1.8 nM in experiment [1] (setting [2]) and 1070 nM in experiment [1] (setting [3]).

As for `CCC1Oc2ccc(C(=O)N3CC[C@@H](N4CCc5ccccc5C4)[C@H](O)C3)cc2NC1=O` (single isomer, unassigned) [Example 12], the EC50 on PRMT5 was determined as 6070 nM; in experiment [1] (setting [2]) it was 106 nM; in experiment [1] (setting [3]) it was 45700 nM.

Turning to `CCC1Oc2ccc(C(=O)N3CC[C@@H](N4CCc5ccccc5C4)[C@H](O)C3)cc2NC1=O` (single isomer, unassigned) [Example 13], the values for the EC50 (on PRMT5; in experiment [1] (setting [2]); in experiment [1] (setting [3])) were 641 nM, approximately 14 nM and 17600 nM, respectively.

For `CC(=O)N1CCC(Nc2nccc(C(=O)N3CC[C@H](N4CCc5ccccc5C4)[C@@H](O)C3)c2F)C(F)(F)C1` (single isomer, unassigned) [Example 14], the EC50 at PRMT5 is 275 nM; in experiment [1] (setting [2]), approximately 20 nM; in experiment [1] (setting [3]), 17200 nM.

`CC(=O)N1CCC(Nc2nccc(C(=O)N3CC[C@H](N4CCc5ccccc5C4)[C@@H](O)C3)c2F)C(F)(F)C1` (single isomer, unassigned) [Example 15]: the EC50 at PRMT5 was found to be 57 nM; in experiment [1] (setting [2]), 6.8 nM; in experiment [1] (setting [3]), 3720 nM.

On to `CC(=O)N1CCC(Nc2nccc(C(=O)N3CC[C@@H](N4CCc5ccccc5C4)[C@H](O)C3)c2F)C(F)(F)C1` (single isomer, unassigned) [Example 16], for which the EC50 at PRMT5 is 5730 nM; in experiment [1] (setting [2]) it was 160 nM; in experiment [1] (setting [3]), 83200 nM.

For `CC(=O)N1CCC(Nc2nccc(C(=O)N3CC[C@@H](N4CCc5ccccc5C4)[C@H](O)C3)c2F)C(F)(F)C1` (single isomer, unassigned) [Example 17], the EC50 at PRMT5 is 8420 nM; in experiment [1] (setting [2]) it was approximately 191 nM; in experiment [1] (setting [3]), more than 100000 nM.

`CC(=O)N1CCC(Nc2cc(C(=O)N3CCC(N4CCc5ccccc5C4)C(O)C3C)ccn2)CC1` (single isomer, unassigned) [Example 20, l-(4-((4-(4-(3,4-dihydroisoquinolin-2(1H)-yl)-3-hydroxy-2-methylpiperidine-1-carbonyl)pyridin-2-yl)amino)piperidin-1-yl)ethan-1-one]: the figures for the EC50 (at PRMT5; in experiment [1] (setting [2]); in experiment [1] (setting [3])) were 12 nM, 4.4 nM and 1500 nM, respectively.

With `CC(=O)N1CCC(Nc2cc(C(=O)N3CCC(N4CCc5ccccc5C4)C(O)C3C)ccn2)CC1` (single isomer, unassigned) [Example 21, 1-(4-((4-(4-(3,4-dihydroisoquinolin-2(1H)-yl)-3-hydroxy-2-methylpiperidine-1-carbonyl)pyridin-2-yl)amino)piperidin-1-yl)ethan-1-one], the EC50 was 1580 nM on PRMT5, approximately 56 nM in experiment [1] (setting [2]) and 25400 nM in experiment [1] (setting [3]).

`CC(=O)N1CCC(Nc2cc(C(=O)N3CCC(N4Cc5ccccc5C(F)(F)C4)C(O)C3)c(F)cn2)CC1` (single isomer, unassigned) [Example 24, 1-(4-((4-(-4-(4,4-difluoro-3,4-dihydroisoquinolin-2(1H)-yl)-3-hydroxypiperidine-1-carbonyl)-5-fluoropyridin-2-yl)amino)piperidin-1-yl)ethan-1-one]: the values for the EC50 (on PRMT5; in experiment [1] (setting [4])) were more than 10000 nM and 5560 nM, respectively.

In the case of `CC(=O)N1CCC(Nc2cc(C(=O)N3CCC(N4Cc5ccccc5C(F)(F)C4)C(O)C3)c(Cl)cn2)CC1` (single isomer, unassigned) [Example 25, l-(4-((5-chloro-4-(-4-(4,4-difluoro-3,4-dihydroisoquinolin-2(1H)-yl)-3-hydroxypiperidine-1-carbonyl)pyridin-2-yl)amino)piperidin-1-yl)ethan-1-one], the EC50 is more than 10000 nM at PRMT5, 841 nM in experiment [1] (setting [2]) and 33900 nM in experiment [1] (setting [3]).

With `O=C(c1ccc(OCC(F)(F)F)nc1)N1CCC(N2Cc3ccccc3C(F)(F)C2)C(O)C1` (single isomer, unassigned) [Example 26, (-4-(4,4-difluoro-3,4-dihydroisoquinolin-2(1H)-yl)-3-hydroxypiperidin-1-yl)(6-(2,2,2-trifluoroethoxy)pyridin-3-yl)methanone], the values for the EC50 (on PRMT5; in experiment [1] (setting [4])) were more than 10000 nM and 15200 nM, respectively.

`CC(=O)N1CCC(Nc2cc(C(=O)N3CCC(N4Cc5ccccc5C(F)(F)C4)C(O)C3)c(F)cn2)CC1` (single isomer, unassigned) [Example 27, 1-(4-((5-fluoro-4-(-4-(4,4-difluoro-3,4-dihydroisoquinolin-2(1H)-yl)-3-hydroxypiperidine-1-carbonyl)pyridin-2-yl)amino)piperidin-1-yl)ethan-1-one]: the EC50 on PRMT5 is more than 10000 nM; in experiment [1] (setting [4]), 809 nM.
